Legend:
DSS colitis mice = assay: DSS-induced colitis in mice treated with AuPhos; assay type: in vivo, mouse; conditions: for colonic ulceration (tissue histology): left colon
Procedure: FIG. 9A includes results for changes with 2% DSS given for 7 days followed by water. AuPhos was started (25 mg/kg q 3D) on DAY1. Body Wt changes shown as means of each group (n=6) with SEM for 9 and 13 day trials. FIG. 9B includes results for changes with 2% DSS given for 7 days followed by water. AuPhos was started (25 mg/kg q 3D) on DAY1. Body Wt changes shown as means of each group (n=6) with SEM for 9 and 13 day trials as shown, with corresponding DAI. FIG. 9C includes results for changes with 2% DSS given for 7 days followed by water. AuPhos was started (25 mg/kg q 3D) on DAY1. Histological score in DSS-colitis mice 7 and 13 days after DSS initation. Statistical significance was determined using 2-way ANOVA with Sidak's multiple comparison test (A,B) or unpaired t-test (C). FIG. 9D includes images showing results for changes with 2% DSS given for 7 days followed by water. AuPhos was started (25 mg/kg q 3D) on DAY1. Representative images of H&E staining of whole tissue scan from 13-day study. ★★<0.01, ★★★<0.0001.
FIG. 12A RT-qPCR analysis of cytokines and chemokine genes in AuPhos vs. controls at 9 and 13 days after DSS initiation. FIG. 12B RT-qPCR analysis of cytokines and chemokine genes in AuPhos vs. controls at 9 and 13 days after DSS initiation. FIG. 12C Quantitative RT-PCR analysis of inflammasome markers in D13 DSS mice. Statistical significance was determined using multiple t-test with Holm-Sidak's multiple method. FIG. 12D Serum IL-6 in AuPhos treated (n=4) and control mice, with or without anti-CD3 antibody. ★<0.05; ★★<0.01.
FIGS. 17A-17F illustrate that AuPhos improves DSS-induced colitis. Results shown are for changes with 2% DSS given for 7 days followed by water. AuPhos was started (25 mg/kg q3D) on DAY1. FIG. 17A. Body Wt changes shown as means of each group (n=6) with SEM for 15 day trial as shown, with FIG. 17B. corresponding DAI. FIG. 17C. Histological score in DSS-colitis mice after Day−7, −11, −13, and −15 of DSS initiation. Statistical significance was determined using 2-way ANOVA with Sidak's multiple comparison test (A,B) or unpaired t-test (C) FIG. 17D. Representative images of H&E staining of whole tissue scan from 13-day study. E. Effect of AuPhos on intestinal permeability using FITC-dextran in DSS-colitis mice (n=5) in a separate D7, D9, D11, D13 and D15 experiment. F. RT-qPCR analysis of cytokines and chemokines genes in AuPhos vs. vehicle treated DSS colitis mice from 9-day, 13-day and 15-day studies. ß<0.05, ßß<0.01, ßßß<0.0001.
Given the potential that AuPhos provides a novel approach to IBD therapy, DSS colitis mice were given (2% DSS×7D) 25 mg/kg i.g. AuPhos every 3 days (from the start of DSS) until sacrifice.
Findings in FIG. 9A-9D indicate that AuPhos attenuates tissue inflammation and enhances mucosal healing in DSS colitis mice. To interrogate the effects of AuPhos on Th1 and Treg cytokine production as well as chemokine and inflammasome mediators, mRNA from mice at time points indicated (as in FIG. 9A-9D). […] To test the question of whether AuPhos affected leukocytes directly, control and AuPhos-treated (25 mg/kg i.g. dosed every 3d×2) were injected with anti-CD3 mAb (antiTCR mAb). It is known that CD3 mAb induces a cytokine storm in the periphery and intestine.
The efficacy of AuPhos in the treatment of colitis. Given the potential that AuPhos provides a novel approach to IBD therapy, DSS colitis mice (2% DSS×7D) were given intragastric (i.g.) AuPhos (25 mg/kg) every 3 days (from the start of DSS) until sacrifice.

[1] = Stability of AuPhos in PBS and DMEM; assay type: physicochemical
From the text: FIGS. 8A-8J present properties of AuPhos. FIG. 8A includes a chemical structure of AuPhos. FIG. 8B includes extrapolated AuPhos-induced OCR (complex I) in liver mitochondria. […] FIG. 8E provides weight change in AuPhos-treated mice over time. FIG. 8F presents stability of AuPhos in PBS and DMEM. FIG. 8G presents stability of AuPhos in PBS and DMEM. FIG. 8H includes an AuPhos-induced Heat map of DEG (left Panel), obtained using log 2(Fold Change) and p-Value <0.00001 thresholds in MDA-MB-231(107) cells (n=2), and the top six hits of KEGG analysis (right panel). FIG. 8I presents biodistribution and pharmacokinetics of AuPhos in different tissues; Colon, Small bowel, Lung, Kidney, Spleen, Liver, Heart and Blood after single dose (oral, 25 mg/kg) administration of AuPhos at 6 h, 12 h and 24 h. FIG. 8J presents biodistribution and pharmacokinetics of AuPhos in different tissues stool after single dose (oral, 25 mg/kg) administration of AuPhos at 6 h, 12 h and 24 h.
This observation was mitochondrial complex I-driven when different substrates, i.e. pyruvate and succinate, were used to measure the OCR. Transcriptomics was used to study global changes in mRNA in response to a 12 h exposure of AuPhos to MDA-MB-231 cells (FIG. 8H).

[2] = 2% DSS x7D, 25 mg/kg i.g. every 3 days, 9 and 13 day trials
[3] = 2% DSS x7D, 25 mg/kg i.g. every 3 days, 15 day trial
[4] = DSS colitis mice, 9 and 13 days after DSS initiation, RT-qPCR

## [Cl][Au]1([c]2ccccc2Cc2ccccn2)[P](c2ccccc2)(c2ccccc2)c2ccccc2[P]1(c1ccccc1)c1ccccc1 [AuPhos]
DSS colitis mice; [2]
  DAI: significantly reduces
  weight (Wt) loss: significantly reduces
DSS colitis mice; 2% DSS x7D, 25 mg/kg i.g. every 3 days, 13-day study
  colonic ulceration (tissue histology): resolution of colonic ulceration throughout the left colon
DSS colitis mice; [3]
  disease activity index (DAI): significantly reduces
  weight (Wt) loss: significantly reduces
DSS colitis mice; 2% DSS x7D, 25 mg/kg i.g. every 3 days, at 13D
  tissue histologic indices (colitis score): significant decreases
DSS colitis mice; 2% DSS x7D, 25 mg/kg i.g. every 3 days, at D11, 13 and 15
  tissue histology indices (colitis score): significant decreases
DSS colitis mice; 15 day trial series
  colonic ulceration (tissue histology): resolution of colonic ulceration throughout the left colon
DSS colitis mice; D13 DSS mice, RT-PCR
  markers of inflammasome signaling mRNA: reduces
DSS colitis mice; DSS colitis mice, 9-day, 13-day and 15-day studies, RT-qPCR
  pro-inflammatory cytokine mRNA and chemokine-mediators of colitis (mucosal mRNA): reduces
DSS colitis mice; [4]
  chemokine-mediators of colitis mRNA (MCP-1, I-TAC and IP-10): reduces
  pro-inflammatory cytokine mRNA (IFNγ, TNF, IL-6 and IL-10): reduces
DSS colitis mice; DSS mice
  acute colitis: attenuates acute colitis
[1]
  solution stability: excellent solution stability
